The subject of test [1] is Factor IIa. Nature of the test: BIOPHEN Heparin Anti-IIa assay in the presence of anti-thrombin. Type of test: biochemical. The settings on record: at concentrations as high as 300 ug/ml, anti-thrombin present. An excerpt: (§1) One common drawback hampering the clinical application of negatively charged glycomimetics is the potentially hazardous tendency to activate anti-thrombin, which in turn severely impairs the ability of blood coagulation factors (e.g. Factor Xa and IIa) in the final common pathway to orchestrate blood coagulation. To verify the safety and clinical potential of the engineered non-saccharide glycomimetics of tunable spatial conformation, the effect of (PE)12-NS and heparin on the activity of blood coagulation factors, Factor Xa and IIa in the presence of anti-thrombin, was assessed. This assessment was performed using BIOPHEN Heparin Anti-Xa and Anti-IIa assays (Aniara) where the inhibitory effect of anti-thrombin on Factor Xa and IIa was determined by the ability of the factors to catalyze the hydrolysis of factor-specific chromogenic substrates. […] The use of spatial conformation to present key chemical motifs toward selectins is therefore specific and independent of other proteins that could lead to undesirable consequences if concomitant enhanced binding were to be seen.

Test [2] deals with B16F10 murine melanoma cells bound to P-selectin-coated surfaces. In words: Adhesion of calcein-labeled tumor cells to immobilized P-selectin. The settings on record: B16F10 cells on P-selectin-coated surfaces. The test is classed as cell-based.
Description: As such, it was examined if the strong binding affinity of (PE)12-NS toward P-selectin could translate into inhibition of P-selectin-mediated adhesion of tumor cells. To do so, recombinant P-selectin chimera protein with a Fc region was immobilized on Protein A-coated surfaces. The adhesion of calcein-labeled B16F10 murine melanoma cells to these surfaces in the presence of heparin or (PE)12-NS was then visualized (FIG. 16A) and quantified by fluorescence microplate reader (FIG. 16B).
The target in test [3] is GDNF (Homo sapiens, UniProt P39905). How it is done:
(§2) SPR measurements were performed using a Biacore T100 system (GE Healthcare). The CM5 sensor chip was primed with HBS-EP+ buffer (10 mM HEPES pH 7.4, 150 mM NaCl, 3.4 mM EDTA, 0.005% P20, GE Healthcare) and was activated using the standard amine-coupling protocol (1:1 mixture of 0.4 M EDC and 0.1M NHS). 0.008 mg/ml of streptavidin solution in 10 mM sodium acetate buffer (Acetate 5.0, GE Healthcare) was conjugated and remaining activated groups were quenched with 1 M ethanolamine solution (pH 8.5). The final amount of streptavidin covalently immobilized on the surface was typically 700 RU. Flow cell 1 (or 3) was used as a reference to subtract nonspecific binding, drift, and the bulk refractive index, while flow cell 2 (or 4) was further immobilized with GAG mimetic agents or natural polysaccharides. […] Immobilized amount is normalized by a molecular weight. For a given affinity measurement, varying amount of protein solutions were successively injected into the flow cells for 240 seconds of contact time and 800 seconds of dissociation time using a flow rate of 50 μL/min at 25° C. Flow cell was regenerated using 2.5 M MgCl2 at 30 μL/min. Association (ka) and dissociation (kd) rate constants were calculated with a 1:1 binding model using Biacore evaluation software, and KD values were calculated from the ratio of kd to ka. Kinetic parameters were obtained by fitting curves to a 1:1 Langmuir model with baseline correction.
(§3) With the non-saccharide glycosaminoglycan mimetics in hand, SPR was employed to facilitate quantitative, real-time kinetic analysis of non-saccharide glycosaminoglycan mimetic binding to GDNF and GFRα1.

In test [4] the target is GFRα1 (Homo sapiens, UniProt P56159). How it is done: as §2, §3
GFRα1 (Homo sapiens, UniProt P56159), sequence (P56159 25-429, species assumed): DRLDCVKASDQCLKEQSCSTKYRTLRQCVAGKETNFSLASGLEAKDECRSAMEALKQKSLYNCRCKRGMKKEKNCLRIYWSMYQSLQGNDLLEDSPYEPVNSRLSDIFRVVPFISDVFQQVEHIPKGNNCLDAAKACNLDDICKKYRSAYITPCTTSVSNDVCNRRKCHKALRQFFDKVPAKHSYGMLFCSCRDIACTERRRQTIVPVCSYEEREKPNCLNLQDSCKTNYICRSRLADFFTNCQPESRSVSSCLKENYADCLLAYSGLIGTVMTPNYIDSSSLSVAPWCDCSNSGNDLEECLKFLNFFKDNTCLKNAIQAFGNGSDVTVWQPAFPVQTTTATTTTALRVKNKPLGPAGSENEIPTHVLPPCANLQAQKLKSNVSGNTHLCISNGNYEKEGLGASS
Test [5] concerns Factor Xa. Nature of the test: BIOPHEN Heparin Anti-Xa assay in the presence of anti-thrombin. The test is classed as biochemical. The settings on record: at concentrations as high as 300 ug/ml, anti-thrombin present.
Description: as §1

The target in test [6] is T1, P-selectin (Homo sapiens, UniProt P16109).
T1 sequence (P16109 42-830): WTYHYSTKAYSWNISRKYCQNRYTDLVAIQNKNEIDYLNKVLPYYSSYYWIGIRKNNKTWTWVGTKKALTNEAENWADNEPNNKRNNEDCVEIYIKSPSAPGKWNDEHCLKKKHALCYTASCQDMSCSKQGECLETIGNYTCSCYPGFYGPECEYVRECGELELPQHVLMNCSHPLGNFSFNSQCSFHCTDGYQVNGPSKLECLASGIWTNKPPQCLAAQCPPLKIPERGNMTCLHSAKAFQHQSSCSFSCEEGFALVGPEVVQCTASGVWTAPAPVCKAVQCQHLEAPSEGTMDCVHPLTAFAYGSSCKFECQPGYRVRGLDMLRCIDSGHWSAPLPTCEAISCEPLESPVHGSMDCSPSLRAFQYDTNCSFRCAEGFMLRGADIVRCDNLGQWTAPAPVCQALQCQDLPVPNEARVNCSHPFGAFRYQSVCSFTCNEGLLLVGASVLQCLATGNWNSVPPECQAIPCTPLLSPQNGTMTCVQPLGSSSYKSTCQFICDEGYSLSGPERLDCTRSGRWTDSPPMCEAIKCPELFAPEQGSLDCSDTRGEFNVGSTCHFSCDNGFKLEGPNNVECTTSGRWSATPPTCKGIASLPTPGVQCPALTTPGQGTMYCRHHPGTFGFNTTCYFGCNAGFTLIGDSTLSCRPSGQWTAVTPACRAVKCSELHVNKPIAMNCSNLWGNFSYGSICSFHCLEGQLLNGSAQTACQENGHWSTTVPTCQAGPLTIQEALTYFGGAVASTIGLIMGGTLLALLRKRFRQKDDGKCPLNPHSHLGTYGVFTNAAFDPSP
Nature of the test: SPR binding to P-selectin. The settings on record: distributed vs single facial conformation. Here is the method: as §2, with “Kinetic parameters were obtained by fitting curves to a 1:1 Langmuir model with baseline correction.” left out
In general terms: In SPR one partner is held on a chip, and binding of the other changes the refractive index at the surface.

For test [7], the system named is PC12 cells. Nature of the test: Neurite outgrowth assay (GDNF-mediated neuritogenesis). The settings on record: 72 h; for effect on neuritogenesis: added to culture media, 20 μM, untreated cells.
Description: PC12 cells were maintained in T75 tissue culture flasks in RPMI 1640 medium (ATCC® 30-2001) supplemented with 10% heat-inactivated horse serum (HI-HS, Gibco 26050-088), 5% fetal bovine serum (FBS, Gibco 26170-043) and 1% penicillin/streptomycin (Gibco 15140-122). Stock cultures from liquid nitrogen were grown at 37° C. with 5% CO2 in a humidified chamber for a minimum of 72 hr before experiments. Cells were seeded on 13 mm round glass coverslips (Paul Marienfeld 0111530). The coverslips were pretreated with 65% nitric acid for three days, washed with distilled water, 70% ethanol and 100% ethanol thrice each for 30 minutes with gentle rocking and then dried in a cell culture hood overnight under UV. For cell attachment, the treated coverslips were coated with laminin (25 μg/mL in PBS; Sigma L2020) at 37° C. for 1 hr, washed thrice with PBS, and then placed at the bottom of a 24-well plate for cell seeding. For all experiments, cells were cultured in RPMI 1640 differentiation media containing 1% HI-HS.
PC12 cells were first harvested and incubated in differentiation media or differentiation media supplemented with 30 μM of DPPE-(PE)12-NS for 2 h. After incubation, the cells were centrifuged and rinsed twice with fresh differentiation medium and then seeded onto laminin-coated coverslips at a density of 100 cells/mm^2. After allowing the cells to attach for 1 hr at 37° C., the medium was replaced with fresh differentiation medium supplemented with 200 ng/mL GDNF and 1 μg/mL GFRα1. As additional controls, (PE)12-NS or NS were further added to the supplemented medium to a final concentration of 20 μM for untreated cells. After 72 h, the cells were fixed with 4% paraformaldehyde solution (Tokyo Chemical Industry 30525-89-4 in PBS) for 15 minutes at room temperature and then rinsed with PBS. Bright-field images were taken using an Olympus IX71 Inverted Microscope at 20× magnification under phase contrast. For each condition, 400-500 randomly selected single cells were counted. The percentage of neurite-bearing cells was determined by counting the number of cells with neurites longer than the cell body. Experiments were repeated three times and done in duplicate each time.
Test [8] addresses T2, P-selectin.
T2 chain: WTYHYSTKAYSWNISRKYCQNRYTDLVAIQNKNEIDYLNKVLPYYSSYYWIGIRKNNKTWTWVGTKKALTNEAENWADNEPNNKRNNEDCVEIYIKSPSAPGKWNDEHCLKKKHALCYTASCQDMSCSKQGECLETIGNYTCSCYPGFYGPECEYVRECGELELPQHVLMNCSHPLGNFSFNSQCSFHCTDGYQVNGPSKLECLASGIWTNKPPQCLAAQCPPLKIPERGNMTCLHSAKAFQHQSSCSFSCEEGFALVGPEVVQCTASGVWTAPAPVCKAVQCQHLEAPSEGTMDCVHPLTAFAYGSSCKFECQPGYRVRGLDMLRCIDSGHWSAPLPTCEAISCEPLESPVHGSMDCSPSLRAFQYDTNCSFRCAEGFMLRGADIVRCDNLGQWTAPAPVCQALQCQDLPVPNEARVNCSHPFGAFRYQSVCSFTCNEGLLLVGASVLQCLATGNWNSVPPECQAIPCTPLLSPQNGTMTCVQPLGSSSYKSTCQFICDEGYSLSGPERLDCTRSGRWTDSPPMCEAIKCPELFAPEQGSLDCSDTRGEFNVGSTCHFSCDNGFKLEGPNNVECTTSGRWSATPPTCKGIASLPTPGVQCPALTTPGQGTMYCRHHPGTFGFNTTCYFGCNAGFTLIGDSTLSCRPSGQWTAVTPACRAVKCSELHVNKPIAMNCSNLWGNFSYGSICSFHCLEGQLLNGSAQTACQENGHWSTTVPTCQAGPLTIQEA
In words: SPR (Biacore T100), biotinylated mimetic on streptavidin chip, selectin injected.

Test [9] addresses T3, GDNF.
T3 chain: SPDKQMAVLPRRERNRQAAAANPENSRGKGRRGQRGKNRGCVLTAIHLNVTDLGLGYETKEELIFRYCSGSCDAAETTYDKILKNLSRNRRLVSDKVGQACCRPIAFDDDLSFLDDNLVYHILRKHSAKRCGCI
In words: SPR (Biacore T100), biotinylated mimetic on streptavidin CM5 chip, protein injected, 1:1 model.

The target in test [10] is GFRα1. The description is as above.
The target of test [11] is recombinant P-selectin chimera protein with a Fc region. In words: cell-based or functional assay.
Setting [12] is: GDNF, SPR, 1:1 binding model, 25° C.
Where [13] appears, read: SPR sensorgrams, 0.2-1.0 nM protein.
Setting [14] is: GFRα1, SPR, 1:1 binding model, 25° C.

“Also recorded” adds a separate entry of the source. Square brackets hold non-standard residues; d marks the D form. Primed or numbered codes have the meaning given here. Ends that are not written are not given here. * marks the point of attachment. PE = 4-azidoproline (Pz) joined by click reaction (1,2,3-triazole) to NS; Biotin = O=C1N[C@H]2[C@H](CS[C@H]2CCCCC(=O)*)N1; PEG12′ = not defined here

GDNF (Homo sapiens, UniProt P39905), sequence (P39905 76-211, species assumed): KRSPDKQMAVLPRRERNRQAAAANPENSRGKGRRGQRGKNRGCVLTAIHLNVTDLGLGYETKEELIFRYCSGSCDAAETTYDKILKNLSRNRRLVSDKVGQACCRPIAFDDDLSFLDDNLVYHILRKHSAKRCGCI

`COC(=O)[C@@H]1C[C@@H](n2cc(CC(COS(=O)(=O)O)OS(=O)(=O)O)nn2)CN1C(=O)[C@@H]1C[C@@H](n2cc(CC(COS(=O)(=O)O)OS(=O)(=O)O)nn2)CN1C(=O)[C@@H]1C[C@@H](n2cc(CC(COS(=O)(=O)O)OS(=O)(=O)O)nn2)CN1C(=O)[C@@H]1C[C@@H](n2cc(CC(COS(=O)(=O)O)OS(=O)(=O)O)nn2)CN1C(=O)[C@@H]1C[C@@H](n2cc(CC(COS(=O)(=O)O)OS(=O)(=O)O)nn2)CN1C(=O)[C@@H]1C[C@@H](n2cc(CC(COS(=O)(=O)O)OS(=O)(=O)O)nn2)CN1C(=O)[C@@H]1C[C@@H](n2cc(CC(COS(=O)(=O)O)OS(=O)(=O)O)nn2)CN1C(=O)[C@@H]1C[C@@H](n2cc(CC(COS(=O)(=O)O)OS(=O)(=O)O)nn2)CN1C(=O)[C@@H]1C[C@@H](n2cc(CC(COS(=O)(=O)O)OS(=O)(=O)O)nn2)CN1C(=O)[C@@H]1C[C@@H](n2cc(CC(COS(=O)(=O)O)OS(=O)(=O)O)nn2)CN1C(=O)[C@@H]1C[C@@H](n2cc(CC(COS(=O)(=O)O)OS(=O)(=O)O)nn2)CN1C(=O)[C@@H]1C[C@@H](n2cc(CC(COS(=O)(=O)O)OS(=O)(=O)O)nn2)CN1C(=O)CCOCCOCCOCCOCCOCCOCCOCCOCCOCCOCCOCCOCCNC(=O)CCCC[C@@H]1SC[C@@H]2NC(=O)N[C@@H]21` (stereo partly drawn) [(PE)12-NS]: the “activity of Factor IIa” value in [1] is given as “remained unaffected”. In addition, the “concentration from which near-complete inhibition of adhesion is achieved” value in test [2] is ≥ 0.6 µg/mL. The figures for the kd in test [3] (setting [12]) and in test [4] (setting [14]) were 2.12 (± 0.07) × 10^−3 S^−1 and 4.9 (± 1.7) × 10^−2 S^−1, respectively. The values for the kα in test [3] (setting [12]) and in test [4] (setting [14]) were 6.42 (± 0.28) × 10^5 M^−1S^−1 and 4.26 (± 0.90) × 10^5 M^−1S^−1, respectively. Moreover, the “binding affinity to GDNF (comparison in words)” value in test [3] (setting [13]) is recorded as “far higher binding affinity”. Moreover, in test [4] (setting [13]), the “binding affinity to GFRα1 (comparison in words)” value is listed as “far higher binding affinity”. In test [5], the “activity of Factor Xa” value is “remained unaffected”. The “binding affinity to P-selectin (comparison in words)” value in test [6] is on record as “stronger binding affinity”. The “effect on neuritogenesis” value in [7] (GDNF and GFRα1) is “Complete inhibition”; in [7] (GDNF and GFRα1, listed as biotin-(PE)12-NS) it was “completely inhibited neuritogenesis”.
On to DPPE-(PE)12-NS (PPPPPPPPPPPP), for which the “percentage of neurite-bearing cells” value in test [7] (cells pre-incubated with 30 μM for 2 h, 200 ng/mL GDNF and 1 μg/mL GFRα1, control 16%) is on record as 45%. Also, the “neurite length” value in test [7] (cells pre-incubated with 30 μM for 2 h, GDNF and GFRα1) was “marked increase”.
For pent-4-yne-1,2-diyl bis(sulfate) [NS], the “effect on neuritogenesis” value in test [7] (GDNF and GFRα1) is “No significant effect; also recorded: no discernable effect”.

B1: Biotin-(PE)12-NS (peptide)
peptide: {Biotin-PEG12′}-[PE][PE][PE][PE][PE][PE][PE][PE][PE][PE][PE][PE]
modifications: also: CO2CH3 methyl ester seen in NMR
notes: Non-saccharide glycosaminoglycan mimetic on a polyproline type II helix, with NS on all three faces; The biotinylated form was immobilised on streptavidin for SPR; also called distributed design; distributed conformation
B1: in test [8], binding was put at a Kd of 6 nM. In [9], this molecule showed a Kd of 3.3 nM, a koff of 0.00212 s⁻¹ and a kon of 642000 M⁻¹ s⁻¹. In [10], the Kd was 116 nM, the koff is 0.049 s⁻¹ and the on-rate constant (kon) worked out at 426000 M⁻¹ s⁻¹. Moreover, in [11], the IC50 of inhibition of adhesion of calcein-labeled B16F10 murine melanoma cells to immobilized P-selectin was 0.18 µg/mL and the near-complete inhibition of adhesion of B16F10 cells to immobilized P-selectin was > 0.6 µg/mL.

One may read the Kd as the constant that tells how readily two partners part at equilibrium. A high value points to lower affinity. Usually koff stands for the rate constant with which the complex falls apart. Read a high koff as a short-lived complex. What is called kon is the second-order rate constant of association.
